The values that follow come from US11135212B2, “Method for treating osteoporosis, osteopenia or low bone mineral density” (Altum Pharmaceuticals Inc., priority 2009, dated 2021).

In one assay the test system is TRAP gene expression. The assay is described as follows: Osteoclast marker gene expression by real time RT-PCR: TRAP. Type of assay: cell-based, mouse (C57BL/6). The settings on record: osteoclasts treated with drug vs DMSO; FIG. 2. How it is done:
(§1) Mouse bone marrow cells were flushed out from femora and tibiae of two 1-2-month old mice (C57BL/6), plated in culture medium (alpha MEM supplemented with 10% heat-inactivated fetal bovine serum, 100 international units/ml penicillin, 100 μg/ml streptomycin, and 2 mM L-glutamine) in a 100-mm dish, and incubated at 37° C. in 5% CO2 overnight. The next day, the non-adherent cells were pelleted and seeded at a density of 200,000 cells/cm^2. Then the osteoclast precursors were cultured in the presence of sRANKL (30 ng/ml) and M-CSF (30 ng/ml), and were treated with either tris(8-quinolinolato)gallium(III) or GaNO3 or DMSO (as a control). The medium was changed at day 3 to obtain mature osteoclasts at day 6. […] At the end of the treatment, the osteoclast preparations were stained for TRAP activity using a leukocyte acid phosphatase kit from Sigma and counted for TRAP-staining multinucleated cells. […] The number of cells having more than 3 nuclei was counted.
(§2) RNA was also isolated for gene expression analysis of osteoclast marker genes (TRAP, cathepsin K and NFAT2). Total RNA was extracted from osteoclasts treated with DMSO or tris(8-quinolinolato)gallium(III), and mRNAs were measured using real time RT-PCR. The relative levels of mRNAs were normalized to β-actin and then expressed as fold stimulation over DMSO-treated cells.

Assay [1] relates to ovariectomized rats. The assay is described as follows: Serum osteocalcin by ELISA in ovariectomized rats. Type of assay: in vivo, Sprague-Dawley female rats. The settings on record: daily drug (15 mg/kg oral, day one through day five of each week), FIG. 4. How it is done:
(§3) The Sprague-Dawley female rats (100-125 gram, about 12 weeks old) were purchased from Taconic (Hudson, N.Y.). They were divided into 5 groups of 8 rats each. Four groups were ovariectomized, and one group was sham-operated. The rats were treated in the following manner: Group 1 ovariectomized rats were orally administered day one through day five of each week with 15 mg/kg tris(8-quinolinolato)gallium(III) (“daily”); Group 2 ovariectomized rats were treated with 75 mg/kg tris(8-quinolinolato)gallium(III) on day one of each week (“weekly”); Group 3 ovariectomized rats were treated with 38 mg/kg Ga(NO3)3 on day one of each week (“weekly”); Group 4 ovariectomized rats were treated with vehicle only (0.1% carboxymethylcellulose); Group 5 rats were sham-operated and were administered with vehicle only (0.1% carboxymethylcellulose). At the end of the experiment (32 days after the first administration of the compounds), the animals were anesthetized. Areal bone mineral density (BMD) and bone mineral content (BMC) were measured for the tibiae by dual-energy X-ray absorptiometry using an X-ray pixiMUS mouse densitometer.
Blood was drawn from the rats and left at room temperature for at least 30 minutes before centrifuging at 200×g for 10 minutes to separate sera. Serum was used for the measurement of serum markers including osteocalcin. Osteocalcin was measured by ELISA. […]

Another assay concerns NFAT2 gene expression. Kind of assay: Osteoclast marker gene expression by real time RT-PCR: NFAT2. The settings on record: osteoclasts treated with drug vs DMSO; FIG. 2. Type of assay: cell-based, mouse (C57BL/6). How it is done: as §1, §2
The test system of assay [2] is osteoclast precursors (mouse bone marrow cells). Kind of assay: Osteoclast differentiation/formation: count of TRAP-staining multinucleated cells from osteoclast precursors cultured with sRANKL and M-CSF. The settings on record: 0.2 nM to 100 μM, day 6, TRAP-stained cells with more than 3 nuclei; p<0.05 compared with DMSO and GaNO3 (3.9 μM, 39 μM); FIG. 1. Type of assay: cell-based, mouse (C57BL/6). How it is done: Mouse bone marrow cells were flushed out from femora and tibiae of two 1-2-month old mice (C57BL/6), plated in culture medium (alpha MEM supplemented with 10% heat-inactivated fetal bovine serum, 100 international units/ml penicillin, 100 μg/ml streptomycin, and 2 mM L-glutamine) in a 100-mm dish, and incubated at 37° C. in 5% CO2 overnight. The next day, the non-adherent cells were pelleted and seeded at a density of 200,000 cells/cm^2. Then the osteoclast precursors were cultured in the presence of sRANKL (30 ng/ml) and M-CSF (30 ng/ml), and were treated with either tris(8-quinolinolato)gallium(III) or GaNO3 or DMSO (as a control). The medium was changed at day 3 to obtain mature osteoclasts at day 6. For treatment with tris(8-quinolinolato)gallium(III), a drug stock solution prepared by dissolving tris(8-quinolinolato)gallium(III) in DMSO was added to the cell cultures to arrive at final concentrations of 0.2 nM, 2 nM, 0.02 μM, 0.2 μM, 2 μM, 20 μM, 50 μM, or 100 μM. At the end of the treatment, the osteoclast preparations were stained for TRAP activity using a leukocyte acid phosphatase kit from Sigma and counted for TRAP-staining multinucleated cells. Specifically, TRAP staining was performed and five areas of each well were photographed. The number of cells having more than 3 nuclei was counted.

The test system of assay [3] is ovariectomized rats. The assay is described as follows: Tibial bone mineral density by dual-energy X-ray absorptiometry in ovariectomized rats. The settings on record: 15 mg/kg oral, day one through day five of each week (daily), 32 days after first administration; FIG. 3. Type of assay: in vivo, Sprague-Dawley female rats. How it is done: as §3
Assay [4] concerns cathepsin K gene expression. Kind of assay: Osteoclast marker gene expression by real time RT-PCR: cathepsin K. The settings on record: osteoclasts treated with drug vs DMSO; FIG. 2. Type of assay: cell-based, mouse (C57BL/6). How it is done:
as §1, §2

For `[Ga+3].[O-]c1cccc2cccnc12.[O-]c1cccc2cccnc12.[O-]c1cccc2cccnc12` [tris(8-quinolinolato)gallium(III)], the “TRAP gene expression (mRNA normalized to β-actin, fold over DMSO-treated cells)” value with TRAP gene expression is “significantly inhibited”. Also, the “serum osteocalcin compared to ovariectomized rats treated with vehicle only” value in the assay on ovariectomized rats [1] is “significantly associated with reduced serum osteocalcin”. Besides, the “NFAT2 gene expression (mRNA normalized to β-actin, fold over DMSO-treated cells)” value in the assay on NFAT2 gene expression is reported as “significantly inhibited”. The “fusion of osteoclast precursors into multinucleated cells (osteoclast differentiation/formation)” value in assay [2] is reported as “significantly inhibits”. In addition, the “bone mineral density (tibiae) compared to ovariectomized untreated rats” value in the assay on ovariectomized rats [3] is reported as “increased bone mineral density”. Also, in assay [4], the “cathepsin K gene expression (mRNA normalized to β-actin, fold over DMSO-treated cells)” value is “significantly inhibited”.
